In PubChem BioAssay (NCI):
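A five-concentration, 48-hour dose response in 96-well plates underlies each endpoint, interpolated linearly between surrounding concentrations. TGI marks complete inhibition of growth.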

Legend:
Test in all cases: NCI-60 cell line screen, 48 h
[1] = test system: MALME-3M melanoma
[2] = test system: SF-268 CNS
[3] = test system: LOX IMVI melanoma
[4] = test system: OVCAR-5 ovarian
[5] = test system: SNB-19 CNS
[6] = test system: HCC-2998 colon
[7] = test system: SR leukemia
[8] = test system: SF-295 CNS
[9] = test system: OVCAR-8 ovarian
[10] = test system: A549 NSCLC
[11] = test system: CAKI-1 renal
[12] = test system: SNB-75 CNS
[13] = test system: ACHN renal
[14] = test system: SN12C renal
[15] = test system: NCI-H226 lung
[16] = test system: OVCAR-4 ovarian
[17] = test system: HCT-116 colon
[18] = test system: SW-620 colon
[19] = test system: HOP-18 NSCLC
[20] = test system: SK-MEL-5 melanoma
[21] = test system: UACC-62 melanoma
[22] = test system: M19-MEL melanoma
[23] = test system: MOLT-4 leukemia
[24] = test system: COLO 205 colon
[25] = test system: OVCAR-3 ovarian
[26] = test system: SK-MEL-2 melanoma
[27] = test system: DMS 114 small cell lung
[28] = test system: NCI-H23 lung
[29] = test system: CCRF-CEM leukemia
[30] = test system: SK-OV-3 ovarian
[31] = test system: M14 melanoma
[32] = test system: SNB-78 CNS
[33] = test system: IGROV1 ovarian
[34] = test system: LXFL 529 NSCLC
[35] = test system: K-562 leukemia
[36] = test system: UO-31 renal
[37] = test system: HT29 colon
[38] = test system: U251 CNS
[39] = test system: DMS 273 small cell lung
[40] = test system: HOP-92 NSCLC
[41] = test system: HOP-62 NSCLC
[42] = test system: NCI-H522 lung
[43] = test system: TK-10 renal
[44] = test system: SF-539 CNS
[45] = test system: UACC-257 melanoma
[46] = test system: 786-0 renal
[47] = test system: DLD-1 colon
[48] = test system: SK-MEL-28 melanoma
[49] = test system: A498 renal
[50] = test system: KM20L2 colon
[51] = test system: EKVX NSCLC
[52] = test system: HL-60(TB) leukemia
[53] = test system: RPMI-8226 leukemia
[54] = test system: HCT-15 colon
[55] = test system: XF 498 CNS
[56] = test system: KM12 colon
[57] = test system: RXF 393 renal

Q: With `NS(=O)(=O)c1ccc(NC(=O)CC(=O)Nc2ccc(S(N)(=O)=O)cc2)cc1` as the compound, how does the TGI [1] read?
A: > 100 µM

Q: And the TGI [2]?
A: > 100 µM

Q: And the TGI [3]?
A: > 100 µM

Q: What about the TGI [4] of the same compound?
A: > 100 µM

Q: And the TGI [5]?
A: > 100 µM

Q: What about the TGI [6] of the same compound?
A: > 100 µM

Q: And the TGI [7]?
A: > 100 µM

Q: And the TGI [8]?
A: > 100 µM

Q: What about the TGI [9] of the same compound?
A: > 100 µM

Q: And the TGI [10]?
A: > 100 µM

Q: What about the TGI [11] of the same compound?
A: > 100 µM

Q: And the TGI [12]?
A: > 100 µM

Q: What about the TGI [13] of the same compound?
A: > 100 µM

Q: What about the TGI [14] of the same compound?
A: > 100 µM

Q: And the TGI [15]?
A: > 100 µM

Q: And the TGI [16]?
A: > 100 µM

Q: What about the TGI [17] of the same compound?
A: > 100 µM

Q: What about the TGI [18] of the same compound?
A: > 100 µM

Q: And the TGI [19]?
A: > 100 µM

Q: What about the TGI [20] of the same compound?
A: > 100 µM

Q: What about the TGI [21] of the same compound?
A: > 100 µM

Q: What about the TGI [22] of the same compound?
A: > 100 µM

Q: And the TGI [23]?
A: > 100 µM

Q: And the TGI [24]?
A: > 100 µM

Q: And the TGI [25]?
A: > 100 µM

Q: And the TGI [26]?
A: > 100 µM

Q: What about the TGI [27] of the same compound?
A: > 100 µM

Q: And the TGI [28]?
A: > 100 µM

Q: What about the TGI [29] of the same compound?
A: > 100 µM

Q: And the TGI [30]?
A: > 100 µM

Q: What about the TGI [31] of the same compound?
A: > 100 µM

Q: And the TGI [32]?
A: > 100 µM

Q: What about the TGI [33] of the same compound?
A: > 100 µM

Q: And the TGI [34]?
A: > 100 µM

Q: What about the TGI [35] of the same compound?
A: > 100 µM

Q: And the TGI [36]?
A: > 100 µM

Q: And the TGI [37]?
A: > 100 µM

Q: And the TGI [38]?
A: > 100 µM

Q: What about the TGI [39] of the same compound?
A: > 100 µM

Q: And the TGI [40]?
A: > 100 µM

Q: What about the TGI [41] of the same compound?
A: > 100 µM

Q: And the TGI [42]?
A: > 100 µM

Q: What about the TGI [43] of the same compound?
A: > 100 µM

Q: What about the TGI [44] of the same compound?
A: > 100 µM

Q: And the TGI [45]?
A: > 100 µM

Q: What about the TGI [46] of the same compound?
A: > 100 µM

Q: What about the TGI [47] of the same compound?
A: > 100 µM

Q: What about the TGI [48] of the same compound?
A: > 100 µM

Q: And the TGI [49]?
A: > 100 µM

Q: What about the TGI [50] of the same compound?
A: > 100 µM

Q: And the TGI [51]?
A: > 100 µM

Q: And the TGI [52]?
A: > 100 µM

Q: And the TGI [53]?
A: > 100 µM

Q: And the TGI [54]?
A: > 100 µM

Q: What does the source list for `CCc1ccc(/C(C)=N/NC(N)=S)cc1`?
A: TGI [1]: > 100 µM; TGI [2]: > 100 µM; TGI [4]: 72.3 µM; TGI [5]: > 100 µM; TGI [6]: > 100 µM; TGI [7]: > 100 µM; TGI [8]: > 100 µM; TGI [9]: > 100 µM; TGI [10]: > 100 µM; TGI [11]: > 100 µM; TGI [16]: > 100 µM; TGI [17]: > 100 µM; TGI [19]: > 100 µM; TGI [20]: > 100 µM; TGI [21]: > 100 µM; TGI [22]: > 100 µM; TGI [23]: > 100 µM; TGI [24]: > 100 µM; TGI [25]: > 100 µM; TGI [26]: > 100 µM; TGI [27]: > 100 µM; TGI [28]: > 100 µM; TGI [30]: > 100 µM; TGI [31]: > 100 µM; TGI [32]: > 100 µM; TGI [33]: > 100 µM; TGI [35]: > 100 µM; TGI [36]: > 100 µM; TGI [37]: > 100 µM; TGI [38]: > 100 µM; TGI [40]: > 100 µM; TGI [55]: 82.6 µM; TGI [41]: > 100 µM; TGI [43]: > 100 µM; TGI [44]: > 100 µM; TGI [56]: > 100 µM; TGI [46]: > 100 µM; TGI [48]: > 100 µM; TGI [50]: > 100 µM; TGI [51]: > 100 µM; TGI [57]: > 100 µM; TGI [53]: > 100 µM
